≈ marks a conversion by molar mass, not a printed value. Like-named read-outs stand apart in the source and are kept apart here.
Legend:
M. tuberculosis Dxr = M. tuberculosis Dxr (Mycobacterium tuberculosis, UniProt P9WNS1); test: biochemical
Mtb H37Rv (ATCC 27294) = test: microbe, parasite or virus in culture; assay type: cell-based, Mycobacterium tuberculosis; settings: Mycobacterium tuberculosis
[1] = read-out: Mtb MIC (ug/mL) (7H9)
[2] = read-out: Mtb MIC (ug/mL) (GAST)

Sequence of M. tuberculosis Dxr (P9WNS1 whole entry, looked up): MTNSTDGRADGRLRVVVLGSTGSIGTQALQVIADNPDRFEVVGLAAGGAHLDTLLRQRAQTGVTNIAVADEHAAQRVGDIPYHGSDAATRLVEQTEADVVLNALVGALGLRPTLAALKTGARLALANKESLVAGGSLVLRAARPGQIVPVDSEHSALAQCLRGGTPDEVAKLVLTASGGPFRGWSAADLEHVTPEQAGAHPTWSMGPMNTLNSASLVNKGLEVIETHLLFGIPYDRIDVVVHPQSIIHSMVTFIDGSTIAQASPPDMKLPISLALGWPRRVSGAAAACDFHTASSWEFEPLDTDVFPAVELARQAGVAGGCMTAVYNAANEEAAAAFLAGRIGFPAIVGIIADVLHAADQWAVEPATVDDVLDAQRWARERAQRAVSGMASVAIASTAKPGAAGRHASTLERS

CC(=O)N(CCCP(=O)(O)O)OCc1ccc(-c2ccccc2)cc1 [GSJ74]
IC50 (M. tuberculosis Dxr; Mtb Dxr IC50 (ug/mL)): 68.6 µM | MIC (Mtb H37Rv (ATCC 27294); read-out: Mtb MIC (ug/mL)): 25 to 50 µg/mL (≈ 68.8 to 138 µM)

CC(=O)N(CCCP(=O)(O)O)OCC1CCCCC1 [GSJ75]
IC50 (M. tuberculosis Dxr; Mtb Dxr IC50 (ug/mL)): 212 µM | MIC (Mtb H37Rv (ATCC 27294); read-out: Mtb MIC (ug/mL)): > 200 µg/mL

CC(=O)N(CCCP(=O)(O)O)OCc1ccc(C(C)C)cc1 [GSJ76]
IC50 (M. tuberculosis Dxr; Mtb Dxr IC50 (ug/mL)): 54 µM | MIC (Mtb H37Rv (ATCC 27294); [1]): 200 µg/mL (≈ 607 µM) | MIC (Mtb H37Rv (ATCC 27294); [2]): 25 µg/mL (≈ 75.9 µM)

CC(=O)N(CCCP(=O)(O)O)OCc1ccc2ccccc2c1 [GSJ77]
IC50 (M. tuberculosis Dxr; Mtb Dxr IC50 (ug/mL)): 47.7 µM | MIC (Mtb H37Rv (ATCC 27294); read-out: Mtb MIC (ug/mL)): ≥ 200 µg/mL

CC(=O)N(CCCP(=O)(O)O)OCCc1ccccc1 [GSJ78]
IC50 (M. tuberculosis Dxr; Mtb Dxr IC50 (ug/mL)): 103 µM | MIC (Mtb H37Rv (ATCC 27294); read-out: Mtb MIC (ug/mL)): > 200 µg/mL

CCOP(=O)(CCCN(OCCc1ccc(O)cc1)C(C)=O)OCC [GSJ80]
MIC (Mtb H37Rv (ATCC 27294); read-out: Mtb MIC (ug/mL)): 200 to 400 µg/mL (≈ 536 to 1070 µM)

CCOP(=O)(CCCN(OCCc1ccc(C)cc1)C(C)=O)OCC [GSJ82]
MIC (Mtb H37Rv (ATCC 27294); [1]): ≥ 400 µg/mL

CC(=O)N(CCCP(=O)(OCOC(=O)C(C)(C)C)OCOC(=O)C(C)(C)C)OCCCCc1ccccc1 [GSJ89]
MIC (Mtb H37Rv (ATCC 27294); [1]): 12.5 µg/mL (≈ 22.4 µM) | MIC (Mtb H37Rv (ATCC 27294); [2]): 6.25 to 12.5 µg/mL (≈ 11.2 to 22.4 µM)

CC(=O)N(CCCP(=O)(OCOC(=O)c1ccccc1)OCOC(=O)c1ccccc1)OCCCCc1ccccc1 [GSJ92]
MIC (Mtb H37Rv (ATCC 27294); [1]): 25 µg/mL (≈ 41.8 µM)

CC(=O)N(CCCP(=O)(OCOC(=O)C(C)(C)C)OCOC(=O)C(C)(C)C)OCc1ccc(C(C)C)cc1 [GSJ96]
MIC (Mtb H37Rv (ATCC 27294); read-out: Mtb MIC (ug/mL)): 12.5 µg/mL (≈ 22.4 µM)

CC(=O)N(CCCP(=O)(OCOC(=O)C(C)(C)C)OCOC(=O)C(C)(C)C)OCc1ccc(-c2ccccc2)cc1 [GSJ97]
MIC (Mtb H37Rv (ATCC 27294); read-out: Mtb MIC (ug/mL)): 12.5 µg/mL (≈ 21.1 µM)

CCOP(=O)(CCCN(OCc1cccc(-c2ccccc2)c1)C(C)=O)OCC [GSJ100]
MIC (Mtb H37Rv (ATCC 27294); read-out: Mtb MIC (ug/mL)): 100 µg/mL (≈ 238 µM)

CCOP(=O)(CCCN(OCc1ccccc1-c1ccccc1)C(C)=O)OCC [GSJ101]
MIC (Mtb H37Rv (ATCC 27294); read-out: Mtb MIC (ug/mL)): 200 to 400 µg/mL (≈ 477 to 954 µM)

CCOP(=O)(CCCN(OCc1ccc(Cl)c(Cl)c1)C(C)=O)OCC [GSJ102]
MIC (Mtb H37Rv (ATCC 27294); read-out: Mtb MIC (ug/mL)): 200 µg/mL (≈ 485 µM)

CCOP(=O)(CCCN(OCc1cccc(OC(F)(F)F)c1)C(C)=O)OCC [GSJ109]
MIC (Mtb H37Rv (ATCC 27294); read-out: Mtb MIC (ug/mL)): 400 µg/mL (≈ 936 µM)

CCOP(=O)(CCCN(OCc1ccc(OC(F)(F)F)cc1)C(C)=O)OCC [GSJ110]
MIC (Mtb H37Rv (ATCC 27294); read-out: Mtb MIC (ug/mL)): 400 µg/mL (≈ 936 µM)

CCOP(=O)(CCCN(OCc1cc(OC)cc(OC)c1)C(C)=O)OCC [GSJ111]
MIC (Mtb H37Rv (ATCC 27294); read-out: Mtb MIC (ug/mL)): > 400 µg/mL

CCOP(=O)(CCCN(OCc1ccc(-c2ccccc2C(=O)OC)cc1)C(C)=O)OCC [GSJ112]
MIC (Mtb H37Rv (ATCC 27294); read-out: Mtb MIC (ug/mL)): 400 µg/mL (≈ 838 µM)

CCOP(=O)(CCCN(OCc1ccc(Br)cc1)C(C)=O)OCC [GSJ113]
MIC (Mtb H37Rv (ATCC 27294); read-out: Mtb MIC (ug/mL)): 400 µg/mL (≈ 947 µM)

CCOP(=O)(CCCN(OCc1ccc(C)cc1)C(C)=O)OCC [GSJ114]
MIC (Mtb H37Rv (ATCC 27294); read-out: Mtb MIC (ug/mL)): > 400 µg/mL

CCOP(=O)(CCCN(OCc1cccc(Br)c1)C(C)=O)OCC [GSJ115]
MIC (Mtb H37Rv (ATCC 27294); read-out: Mtb MIC (ug/mL)): 400 µg/mL (≈ 947 µM)

CCOP(=O)(CCCN(OCc1cccc2ccccc12)C(C)=O)OCC [GSJ116]
MIC (Mtb H37Rv (ATCC 27294); read-out: Mtb MIC (ug/mL)): 400 µg/mL (≈ 1020 µM)

O=C(CCc1ccccc1)N(O)CCCP(=O)(O)O [GSJ 51]
IC50 (M. tuberculosis Dxr; IC50 (uM)): 2.72 µM | IC50 (M. tuberculosis Dxr; IC50 (ug/ml)): 2.92 µM | IC50 (M. tuberculosis Dxr; Mtb Dxr IC50 (ug/mL)): 2.92 µM | MIC (Mtb H37Rv (ATCC 27294); read-out: Mtb MIC (ug/mL)): > 200 µg/mL

O=C(CCCc1ccccc1)N(O)CCCP(=O)(O)O [GSJ 52]
IC50 (M. tuberculosis Dxr; IC50 (uM)): 3.12 µM | IC50 (M. tuberculosis Dxr; IC50 (ug/ml)): 3.35 µM | IC50 (M. tuberculosis Dxr; Mtb Dxr IC50 (ug/mL)): 3.35 µM | MIC (Mtb H37Rv (ATCC 27294); read-out: Mtb MIC (ug/mL)): > 200 µg/mL

O=C(Cc1ccccc1)N(O)CCCP(=O)(O)O [GSJ 55]
IC50 (M. tuberculosis Dxr; IC50 (uM)): 7.49 µM | IC50 (M. tuberculosis Dxr; IC50 (ug/ml)): 8.09 µM | IC50 (M. tuberculosis Dxr; Mtb Dxr IC50 (ug/mL)): 8.09 µM | MIC (Mtb H37Rv (ATCC 27294); read-out: Mtb MIC (ug/mL)): > 200 µg/mL

O=C(NCCCP(=O)(O)O)c1ccc2ccccc2c1 [GSJ 56]
remaining activity at 100 µg/mL (M. tuberculosis Dxr; read-out: Mtb Dxr, value in parentheses (percent enzyme activity remaining)): 90% | remaining activity at 100 µg/mL (M. tuberculosis Dxr; read-out: percent enzyme activity remaining at 100 ug/ml compound): 90% | MIC (Mtb H37Rv (ATCC 27294); read-out: Mtb MIC (ug/mL)): > 200 µg/mL

CC(=O)N(CCCP(=O)(O)O)OC(C)c1ccccc1 (centres unmarked) [GSJ 63]
IC50 (M. tuberculosis Dxr; IC50 (uM)): 161 µM | IC50 (M. tuberculosis Dxr; IC50 (ug/ml)): 173 µM | IC50 (M. tuberculosis Dxr; Mtb Dxr IC50 (ug/mL)): 173 µM | MIC (Mtb H37Rv (ATCC 27294); read-out: Mtb MIC (ug/mL)): > 200 µg/mL

NNC(=O)c1ccncc1 [Isoniazid, reference compound]
MIC (Mtb H37Rv (ATCC 27294); read-out: MIC 7H9 (μg/mL)): 0.04 µg/mL (≈ 0.292 µM) | MIC (Mtb H37Rv (ATCC 27294); read-out: MIC GAST/Fe (μg/mL)): 0.02 µg/mL (≈ 0.146 µM)

Reference: patent US9593136B2 (priority 2011, dated 2017)
